Data taken from patent publication US6900019B1, “In-situ cell extraction and assay method” (Amersham Biosciences UK Limited, priority 1997, dated 2005).
Where “and” joins values, the source holds several entries; their conditions need not be identical. Equal entries are not always repeated.

What was measured:
[1] = system: binding protein prepared from bovine adrenal cortex; test: Radioreceptor binding assay for D-myo-inositol 1,4,5-trisphosphate (IP3) with lysis reagent and sequestrant; settings: 0.5% w/v DTAB in standards
Method: Bovine adrenal glands were removed from animals and stored at −20° C. before preparing the binding protein. The cortex was dissected from the adrenal glands, homogenised in NaHCO3 (20 mM) with dithiothreitol (1 mM), and the homogenate centrifuged at 5000 g for 15 minutes. The supernatant was centrifuged at 35000 g for 20 minutes, the resulting pellet resuspended in the homogenisation buffer and centrifuged again at 35000 g for 20 minutes. The final pellet was resuspended in homogenisaton buffer at a protein concentration of between 20-40 mg/ml.
For the assay, aliquots (100 μl) of the bovine adrenal cortex microsome preparation were incubated in 100 μl of 0.1M Tris buffer (pH9.0), containing 4 mM EDTA and 4 mg/ml bovine serum albumin. Incubations were carried out for 15 minutes in a final volume of 0.4 ml with [^3H] inositol 1,4,5-trisphosphate (100 μl; 6000 cpm) sample or standard (100 μl; 0.19-25 pmol inositol 1,4,5-trisphosphate/assay tube). Non-specific binding was determined in the presence of 1 nmol inositol 1,4,5-trisphosphate/tube. Incubations were terminated by centrifugation (12000 g) (10 minutes at 4° C.) and removal of the supernatant by gentle decantation. Particulate bound radioactivity was analysed, after suspension in 0.15M sodium hydroxide followed by neutralisation with 10% acetic acid, by liquid scintillation counting […]

[2] = system: rabbit anti-cAMP sera (antigen:antibody binding); test: Scintillation proximity radioimmunoassay for cAMP: standard curves with lysis reagents and sequestrants
Method: All assays were carried out in microtitre plates compatible with a microtitre plate beta scintillation counter. Standards (50 μl; 0.2-12.8 pmol/well), antisera (50 μl; at 1:11000 dilution), tracer (50 ul; 10000-20000 cpm) are added to anti-rabbit coated SPA beads (50 μl; 20 mg/ml). Non-specific binding was determined in the absence of specific rabbit antisera. SPA anti-rabbit reagent is placed onto a magnetic stirrer to ensure a homogeneous suspension before pipetting. All wells contained a total volume of 200 μl. The plates were sealed and incubated at room temperature (15-30° C.) for 15-20 hours. The amount of [^125I]cAMP bound to the SPA fluomicrospheres was determined by counting in a microtitre plate beta scintillation counter for 2 minutes.
Experiments were set up with:— • a) Working standards (4-256 pmol/ml; 0.2-12.8 pmol/well) were prepared in assay buffer (0.05M sodium acetate buffer containing 0.01% sodium azide) only (control) or assay buffer containing lysis reagent (e.g. DTAB, CPC or SDS; see experiment 1) at various concentrations. • b) Rabbit anti-cAMP sera prepared in assay buffer only (control) or assay buffer containing sequestrating agent at various concentrations depending on the experiment. • c) Radioactive tracer: adenosine 3′ 5′-cyclic phosphoric acid 2′-O-succinyl-3-[^125I] iodotyrosine methyl ester prepared in assay buffer only (control) or assay buffer containing sequestrating agent at various concentrations depending on the experiment. • d) Donkey anti-rabbit IgG coupled to scintillation proximity fluomicrospheres prepared in assay buffer only (control) or assay buffer containing sequestrating agent at various concentrations depending on the experiment. Experiment 1: Inhibition of Antigen and Antibody Binding by Several Lysis Reagents Method
In these experiments, standard curves were prepared for cAMP using the SPA immunoassay technique, described above, where working standards of cAMP were prepared in several lysis reagents at 1% (w/v) or 2% (w/v) final concentration. The detergents investigated included dodecyl trimethyl ammonium bromide (DTAB; Sigma Chemical Co. D8638), benzethonium chloride (BZC; Aldrich; B470-8), cetyl pyridinium chloride (CPC; Sigma Chemical Co; C9002), sodium dodecyl sulphate (SDS, Sigma chemical Co; L4509) and N-dodecyl-N,N-dimethyl-3-ammonio-1-propanesulphonate (DDAPS; Sigma Chemical Co.; D4516).
In these experiments, standard curves for cAMP were prepared using the SPA immunoassay technique described above, where working standards of cAMP were prepared in 1% (w/v), 1.5% (w/v) or 2% (w/v) lysis reagents (DTAB, SDS or CPC). The control consisted of no lysis reagent or cyclodextrin added. The effect including 2.5% (w/v) alpha-cyclodextrin (alpha-CD) (Sigma Chemical Co.; C4642) on antigen:antibody binding was investigated. Here, tracer, antisera and SPA beads were prepared in assay buffer containing 2.5% (w/v) alpha-CD. A second control tested the effect of 2.5% (w/v) alpha-CD on the standard curve without addition of lysis reagent.
In this experiment, standard curves for cAMP were prepared using the SPA radioimmunoassay where working standards of cAMP were prepared in 1% (w/v) DTAB. The effect of including 1% (w/v), 2% (w/v), 2.5% (w/v) and 5% (w/v) alpha-cyclodextrin on antigen:antibody binding was investigated. Here, tracer, antisera and SPA beads were prepared in assay buffer containing alpha-CD at the above concentrations. The control consisted of no lysis or cyclodextrin added to the assay.
In this experiment, standard curves for cAMP were prepared using the SPA immunoassay technique where working standards were prepared 1% (wt) lysis reagent (DTAB). The effect of including 2.5% (w/v) alpha-cyclodextrin (CD) 2.5% (w/v) beta-cyclodextrin (beta-CD) (Sigma is Chemical Co.; C4767) and 2.5% (w/v) gamma-cyclodextrin (gamma-CD) (Sigma Chemical Co.; 4892) on antigen:antibody binding was investigated. […]

OC[C@H]1O[C@@H]2O[C@H]3[C@H](O)[C@@H](O)[C@@H](O[C@H]4[C@H](O)[C@@H](O)[C@@H](O[C@H]5[C@H](O)[C@@H](O)[C@@H](O[C@H]6[C@H](O)[C@@H](O)[C@@H](O[C@H]7[C@H](O)[C@@H](O)[C@@H](O[C@H]1[C@H](O)[C@H]2O)O[C@@H]7CO)O[C@@H]6CO)O[C@@H]5CO)O[C@@H]4CO)O[C@@H]3CO [CD, alpha-cyclodextrin] was tested, and the “binding of [3H]IP3 to the receptor preparation” value ([1]; alpha-cyclodextrin 2% final w/v in tracer and adrenal cortex preparation) was “Binding was restored”, the “restoration of antigen:antibody binding” value ([2]; 1% (w/v) and 2% (w/v) alpha-CD, standards in 1% DTAB) was “restored binding to a limited degree” and the “restoration of antigen:antibody binding” value ([2]; 2.5% (w/v) alpha-CD, standards in 1% DTAB) was “optimal results”. For the same molecule, the “restoration of antigen:antibody binding by different sequestrants” value ([2]; 2.5% (w/v) sequestrant, standards in 1% DTAB) was “restored binding to an optimal degree”, the “effect on the cAMP standard curve” value ([2]; 2.5% alpha-CD only, no lysis reagent) was “little impact” and the “[125I]cAMP bound to SPA beads, counts per minute” value (“[125I]cAMP bound … per minute” for short) ([2]; 2.5% alpha-cyclodextrin only, no lysis reagent, 0.2 pmol cAMP/well) was 2790 cpm. For the same molecule, the “[125I]cAMP bound … per minute” value ([2]; 2.5% alpha-cyclodextrin only, no lysis reagent, 0.2 pmol cAMP/well, listed as cyclodextrin) was 2358 cpm, the “[125I]cAMP bound … per minute” value ([2]; 2.5% alpha-cyclodextrin only, no lysis reagent, 0.4 pmol cAMP/well) was 2485 cpm and the “[125I]cAMP bound … per minute” value ([2]; 2.5% alpha-cyclodextrin only, no lysis reagent, 0.4 pmol cAMP/well, listed as cyclodextrin) was 1979 cpm. For the same molecule, the “[125I]cAMP bound … per minute” value ([2]; 2.5% alpha-cyclodextrin only, no lysis reagent, 0.8 pmol cAMP/well) was 1979 cpm, the “[125I]cAMP bound … per minute” value ([2]; 2.5% alpha-cyclodextrin only, no lysis reagent, 0.8 pmol cAMP/well, listed as cyclodextrin) was 1682 cpm and the “[125I]cAMP bound … per minute” value ([2]; 2.5% alpha-cyclodextrin only, no lysis reagent, 1.6 pmol cAMP/well) was 1503 cpm. For the same molecule, the “[125I]cAMP bound … per minute” value ([2]; 2.5% alpha-cyclodextrin only, no lysis reagent, 1.6 pmol cAMP/well, listed as cyclodextrin) was 1499 cpm, the “[125I]cAMP bound … per minute” value ([2]; 2.5% alpha-cyclodextrin only, no lysis reagent, 3.2 pmol cAMP/well) was 1058 cpm and the “[125I]cAMP bound … per minute” value ([2]; 2.5% alpha-cyclodextrin only, no lysis reagent, 3.2 pmol cAMP/well, listed as cyclodextrin) was 1143 cpm. The “[125I]cAMP bound … per minute” value ([2]; 2.5% alpha-cyclodextrin only, no lysis reagent, 6.4 pmol cAMP/well) was 674 cpm, the “[125I]cAMP bound … per minute” value ([2]; 2.5% alpha-cyclodextrin only, no lysis reagent, 6.4 pmol cAMP/well, listed as cyclodextrin) was 754 cpm and the “[125I]cAMP bound … per minute” value ([2]; 2.5% alpha-cyclodextrin only, no lysis reagent, 12.8 pmol cAMP/well) was 415 cpm. For the same molecule, the “[125I]cAMP bound … per minute” value ([2]; 2.5% alpha-cyclodextrin only, no lysis reagent, 12.8 pmol cAMP/well, listed as cyclodextrin) was 383 cpm, the “[125I]cAMP bound … per minute” value ([2]; 2.5% alpha-cyclodextrin only, no lysis reagent, NSB (no specific antisera)) was 155 cpm and the “[125I]cAMP bound … per minute” value ([2]; 2.5% alpha-cyclodextrin only, no lysis reagent, NSB (no specific antisera), listed as cyclodextrin) was 199 cpm. The “[125I]cAMP bound … per minute” value ([2]; 2.5% alpha-cyclodextrin only, no lysis reagent, Zero standard) was 3300 cpm, the “[125I]cAMP bound … per minute” value ([2]; 2.5% alpha-cyclodextrin only, no lysis reagent, Zero standard, listed as cyclodextrin) was 3145 cpm and the “restoration of antigen:antibody binding” value ([2]; 5% (w/v) alpha-CD, standards in 1% DTAB) was “inhibitory”.

CCCCCCCCCCCC[N+](C)(C)C.[Br-] [DTAB, dodecyl trimethyl ammonium bromide] was tested, and the “binding of [3H]IP3 to the receptor preparation” value ([1]; no sequestrant) was “total inhibition of binding”, the “[125I]cAMP bound … per minute” value ([2]; 1% lysis reagent, no sequestrant, 0.2 pmol cAMP/well) was 1118 cpm and 1575 cpm and the “[125I]cAMP bound … per minute” value ([2]; 1% lysis reagent, no sequestrant, 0.4 pmol cAMP/well) was 1098 cpm and 1573 cpm. For the same molecule, the “[125I]cAMP bound … per minute” value ([2]; 1% lysis reagent, no sequestrant, 0.8 pmol cAMP/well) was 1088 cpm and 1305 cpm, the “[125I]cAMP bound … per minute” value ([2]; 1% lysis reagent, no sequestrant, 1.6 pmol cAMP/well) was 977 cpm and 1097 cpm and the “[125I]cAMP bound … per minute” value ([2]; 1% lysis reagent, no sequestrant, 3.2 pmol cAMP/well) was 860 cpm and 813 cpm. The “[125I]cAMP bound … per minute” value ([2]; 1% lysis reagent, no sequestrant, 6.4 pmol cAMP/well) was 649 cpm and 619 cpm, the “[125I]cAMP bound … per minute” value ([2]; 1% lysis reagent, no sequestrant, 12.8 pmol cAMP/well) was 440 cpm and 439 cpm and the “[125I]cAMP bound … per minute” value ([2]; 1% lysis reagent, no sequestrant, NSB (no specific antisera)) was 130 cpm and 182 cpm. For the same molecule, the “[125I]cAMP bound … per minute” value ([2]; 1% lysis reagent, no sequestrant, Zero standard) was 1429 cpm and 1586 cpm, the “[125I]cAMP bound … per minute” value ([2]; 1.5% lysis reagent only, 0.2 pmol cAMP/well) was 799 cpm and the “[125I]cAMP bound … per minute” value ([2]; 1.5% lysis reagent only, 0.4 pmol cAMP/well) was 713 cpm. The “[125I]cAMP bound … per minute” value ([2]; 1.5% lysis reagent only, 0.8 pmol cAMP/well) was 688 cpm, the “[125I]cAMP bound … per minute” value ([2]; 1.5% lysis reagent only, 1.6 pmol cAMP/well) was 513 cpm and the “[125I]cAMP bound … per minute” value ([2]; 1.5% lysis reagent only, 3.2 pmol cAMP/well) was 426 cpm. For the same molecule, the “[125I]cAMP bound … per minute” value ([2]; 1.5% lysis reagent only, 6.4 pmol cAMP/well) was 376 cpm, the “[125I]cAMP bound … per minute” value ([2]; 1.5% lysis reagent only, 12.8 pmol cAMP/well) was 264 cpm and the “[125I]cAMP bound … per minute” value ([2]; 1.5% lysis reagent only, NSB (no specific antisera)) was 237 cpm. The “[125I]cAMP bound … per minute” value ([2]; 1.5% lysis reagent only, Zero standard) was 819 cpm, the “[125I]cAMP bound … per minute” value ([2]; 2% lysis reagent, no sequestrant, 0.2 pmol cAMP/well) was 231 cpm and 198 cpm and the “[125I]cAMP bound … per minute” value ([2]; 2% lysis reagent, no sequestrant, 0.4 pmol cAMP/well) was 231 cpm and 216 cpm. The “[125I]cAMP bound … per minute” value ([2]; 2% lysis reagent, no sequestrant, 0.8 pmol cAMP/well) was 201 cpm, the “[125I]cAMP bound … per minute” value ([2]; 2% lysis reagent, no sequestrant, 1.6 pmol cAMP/well) was 195 cpm and 179 cpm and the “[125I]cAMP bound … per minute” value ([2]; 2% lysis reagent, no sequestrant, 3.2 pmol cAMP/well) was 179 cpm and 176 cpm. For the same molecule, the “[125I]cAMP bound … per minute” value ([2]; 2% lysis reagent, no sequestrant, 6.4 pmol cAMP/well) was 170 cpm and 144 cpm, the “[125I]cAMP bound … per minute” value ([2]; 2% lysis reagent, no sequestrant, 12.8 pmol cAMP/well) was 93 cpm and 78 cpm and the “[125I]cAMP bound … per minute” value ([2]; 2% lysis reagent, no sequestrant, NSB (no specific antisera)) was 145 cpm and 138 cpm. The “[125I]cAMP bound … per minute” value ([2]; 2% lysis reagent, no sequestrant, Zero standard) was 272 cpm and 217 cpm.
